# Source: EP0179751B1, “Ionophore polyether, process for its preparation and its use” (SANOFI, priority 1984, dated 1986)
# Read-outs that look alike come from different tables or passages of the source.
# How the values were obtained:
# solubility = assay type: physicochemical
# Protocol: Aspect: solide P.F. : 83-85° C Solubilité : se dissout dans les solvants organiques usuels, tels que les alcools inférieurs par exemple méthanol, éthanol, les esters inférieurs, par exemple l'acétate d'éthyle ou encore dans l'éther éthylique et le chloroforme. Dans l'eau, la solubilité est de 44 % environ. αj25 : +45° (c = 0,03 n, méthanol)
# Aspect : mousse blanche solide. P.F. 120-123° C Solubilité : se dissout dans les solvants organiques usuels, tels que les alcools inférieurs par exemple méthanol, éthanol, les esters inférieurs par exemple l'acétate d'éthyle ou encore dans l'éther éthylique et le chloroforme. Par contre, il est insoluble dans l'eau.
# Bacillus cereus = assay: minimum inhibitory concentration, dilution method; assay type: cell-based
# Excerpt: Par exemple, on a décrit dans les brevets de l'Allemagne de l'Est Nos. 208 172 et 237 725 des complexes d'antibiotiques produits à partir de souches de Streptomyces hygroscopicus. Ces composés polyéthers sont caractérisés par une activité antibiotique importante et comparativement plus importante que celle présentée par la monensine ou la salinomycine. Par contre, l'abiérixine est douée d'activité antibiotique très faible par rapport à celle présentée par la plupart des ionophores polyéthers connus comme la monensine, la nigéricine ou la grisorixine. Par exemple, la concentration minimale inhibitrice de l'abiérixine vis-à-vis de Bacillus cereus déterminée selon la méthode de dilution est de 25 µg/ml mais de 0,05 µg/ml, 0,05 ug/ml et 3,12 gg/ml dans le cas respectivement de la monensine, de la nigéricine et de la grisorixine.
# Eimeria tenella = assay: anticoccidial test in cockerels inoculated with Eimeria tenella; assay type: in vivo; settings: for Lésion individuelle Moyenne: Reid lesion score; for IC de J - 2 à J + 8: feed conversion index; for EO x 10^3 Total: oocyst excretion J+4 to J+8; for EO %: oocyst excretion relative to CTNT; for P = poids moyen à J + 8: start weight 127 g
# Excerpt: Des tests ont été effectués de manière à montrer l'efficacité de l'abiérixine comme agent anticoccidien dans lesquels on a relevé les résultats zootechniques (poids, indice de consommation) et les symptômes […] de coccidiose (morbidité, mortalité, aspect des matières fécales, excrétion ookystale, lésions).
# On a utilisé à cet effet le protocole expérimental suivant : • Animaux • - Coquelets de souche génétique Warren Sex Sal Link • - Age le jour de l'inoculation (J O) : 17 jours • - Age le jour de l'abattage (J +8) : 25 jours
# Inoculum Dose : 300 000 oocystes sporulés d'Eimeria tenella
# Alimentation • - Aliment utilisé : aliment type poulet de chair, 1er âge • - Anticoccidien utilisé : l'abiérixine à la dose de 40 ou 50 ppm/jour depuis J-2 jusqu'à J +8
# Lots • - Nombre d'animaux par lot : 4 • - Répartition des lots : • NCNT : animaux non contaminés, non traités • CTNT : animaux contaminés, non traités • CTT, : animaux contaminés, traités avec 40 ppm d'abiérixine • CTT2 : animaux contaminés, traités avec 50 ppm d'abiérixine
# Les critères • - Les gains de poids (GP) de J-2 à J +8 • - L'excrétion ookystale (EO) journalière de J+4 à J+8 • - La morbidité (M) notée de 0 à 4 • - L'aspect des fécès noté de 0 : fécès normales à 4 : fécès diarrhéiques ou hémorragiques (MF) • - La mortalité (M %) exprimée en pourcentage • - Les lésions (L) notées selon la notation de RFID (W. Malcolm REID, "A diagnostic chart of nine species of fowl coccidia - Georgia Agricultural Experiment Stations - Dec. 1964, Technical Bulletin N. S. 39) • - Les indices de consommation (IC)
# acute toxicity, oral = settings: mouse, in vivo, souris, voie orale, read-out: toxicité aiguë DL50
# Protocol: On a trouvé, par exemple, que la toxicité aiguë DL50 de l'abiérixine chez la souris par voie orale est comprise entre 600 et 1000 mg/kg alors que, dans les mêmes conditions, la toxicité d'autres polyéthers polycycliques se révèle beaucoup plus importante, de l'ordre de 50 mg/kg (DL50 lonomycine : 50 mg/kg, complexe de monensine- : 43,8 mg/kg, salinomycine- : 50 mg/kg).
# flore ruménale = assay: in vitro rumen flora fermentation, nitrogen use; settings: in the absence of protein nitrogen
# [1] = cited from earlier work
# [2] = mouse, in vivo; cited from earlier work
# [3] = tested on: Streptomyces C.N.C.M.-I-321; assay: sensitivity of producer strain to nigericin (MIC); assay type: cell-based
# [4] = tested on: Streptomyces hygroscopicus NRRL B 1865; assay: sensitivity of producer strain to nigericin (MIC); assay type: cell-based
# [5] = tested on: Streptomyces hygroscopicus NRRL 3602; assay: sensitivity of producer strain to nigericin (MIC); assay type: cell-based
# [6] = CTT1: 40 ppm, J + 6, score 0 to 4
# [7] = CTT1: 40 ppm, J + 7, score 0 to 4
# [8] = CTT2: 50 ppm, J + 6, score 0 to 4
# [9] = CTT2: 50 ppm, J + 7, score 0 to 4
# [10] = souris, voie orale, comparison polyethers
molecule,measurement,setting,value
COC1CC(CC(O)CCC(C)C=C(C)C(=O)O)OC2(OC(C)(C3CCC(C)(C4OC(C5OC(O)(CO)C(C)CC5C)CC4C)O3)CC2C)C1C (stereo not shown) [abiérixine monohydratée],Solubilité dans les solvants organiques usuels,"solubility; méthanol, éthanol, acétate d'éthyle, éther éthylique, chloroforme",se dissout
same,solubility,"solubility; water, read-out: Solubilité dans l'eau",~440 mg/mL
COC1CC(CC(O)CCC(C)C=C(C)C(=O)O)OC2(OC(C)(C3CCC(C)(C4OC(C5OC(O)(CO)C(C)CC5C)CC4C)O3)CC2C)C1C (stereo not shown) [abiérixine],MIC,Bacillus cereus; read-out: concentration minimale inhibitrice,25 µg/mL
same,croissance pondérale,"Eimeria tenella; 40 ppm/jour for 10 days, cockerels infected with E. tenella",augmente la croissance pondérale
same,M % (mortalité),Eimeria tenella; CTT1: 40 ppm,0%
same,GP = gain de poids moyen de J - 2 à J + 8,Eimeria tenella; CTT1: 40 ppm in feed J-2 to J+8,93 g
same,MF (aspect des fécès),"Eimeria tenella; CTT1: 40 ppm, J + 5, score 0 normal to 4 diarrhoeic or haemorrhagic",4
same,M (morbidité),"Eimeria tenella; CTT1: 40 ppm, J + 5, score 0 to 4",3
same,M (morbidité),Eimeria tenella; [6],0
same,MF (aspect des fécès),Eimeria tenella; [6],1
same,M (morbidité),Eimeria tenella; [7],0
same,MF (aspect des fécès),Eimeria tenella; [7],0
same,Lésion individuelle Moyenne,Eimeria tenella; CTT1: 40 ppm,"2,5"
same,IC de J - 2 à J + 8,Eimeria tenella; CTT1: 40 ppm,"2,8"
same,EO x 10^3 Total,Eimeria tenella; CTT1: 40 ppm,4165 x 10^3
same,EO %,Eimeria tenella; CTT1: 40 ppm,"74,0%"
same,P = poids moyen à J + 8,"Eimeria tenella; CTT1: infected cockerels, 40 ppm in feed J-2 to J+8",219 g
same,M % (mortalité),Eimeria tenella; CTT2: 50 ppm,0%
same,GP = gain de poids moyen de J - 2 à J + 8,Eimeria tenella; CTT2: 50 ppm in feed J-2 to J+8,63 g
same,MF (aspect des fécès),"Eimeria tenella; CTT2: 50 ppm, J + 5, score 0 normal to 4 diarrhoeic or haemorrhagic",3
same,M (morbidité),"Eimeria tenella; CTT2: 50 ppm, J + 5, score 0 to 4",3
same,M (morbidité),Eimeria tenella; [8],0
same,MF (aspect des fécès),Eimeria tenella; [8],1
same,M (morbidité),Eimeria tenella; [9],0
same,MF (aspect des fécès),Eimeria tenella; [9],0
same,Lésion individuelle Moyenne,Eimeria tenella; CTT2: 50 ppm,"3,5"
same,IC de J - 2 à J + 8,Eimeria tenella; CTT2: 50 ppm,"3,35"
same,EO x 10^3 Total,Eimeria tenella; CTT2: 50 ppm,2324 x 10^3
same,EO %,Eimeria tenella; CTT2: 50 ppm,"41,3%"
same,P = poids moyen à J + 8,"Eimeria tenella; CTT2: infected cockerels, 50 ppm in feed J-2 to J+8",190 g
same,LD50,"acute toxicity, oral",600 to 1000 mg/kg
same,diminution de l'efficacité de la synthèse microbienne,flore ruménale,10%
CO[C@@H]1C[C@@H](C[C@H]2CC[C@H](C)C(C(C)C(=O)O)O2)O[C@]2(OC(C)(C3CCC(C)(C4O[C@@H]([C@H]5O[C@](C)(O)[C@H](C)C[C@@H]5C)C[C@@H]4C)O3)CC2C)[C@@H]1C (stereo partly shown) [grisorixine],concentration minimale inhibitrice,Bacillus cereus,"3,12 gg/ml"
CC[C@@H](C(=O)[C@@H](C)[C@@H](O)[C@H](C)[C@@H]1O[C@@H]([C@@H](CC)C(=O)O)CC[C@@H]1C)[C@H]1O[C@]2(C=C[C@@H](O)[C@]3(CC[C@@](C)([C@H]4CC[C@](O)(CC)[C@H](C)O4)O3)O2)[C@H](C)C[C@@H]1C [salinomycine],DL50,"[1]; mouse, in vivo, po",50 mg/kg
same,DL50,[2],18 mg/kg
COC1CC(CC(O)CCC(C)C=C(C)C(=O)O)OC2(OC(C)(C3CCC(C)(C4OC(C5OC(O)(CO)C(C)CC5C)CC4C)O3)CC2C)C1C (stereo not shown) [sel de sodium de l'abiérixine],Solubilité dans l'eau,"solubility; water, in words",insoluble
complexe de monensine,DL50,[1]; [10],"43,8 mg/kg"
lonomycine,DL50,[1]; [10],50 mg/kg
nigéricine,concentration minimale inhibitrice,Bacillus cereus,"0,05 ug/ml"
same,Sensibilité à la nigéricine (C.M.I),[3],> 500 µg/mL
same,Sensibilité à la nigéricine (C.M.I),[4],> 500 µg/mL
same,Sensibilité à la nigéricine (C.M.I),[5],> 500 µg/mL
same,diminution de l'efficacité de la synthèse microbienne,flore ruménale,> 30%
